Test results as given in PubChem BioAssay AID328 (DTP/NCI, 2004).
Where “and” joins values, the source holds several entries; their conditions need not be identical. Equal entries are not always repeated. Inconclusive results and toxic doses are left out. The calls were made as follows: active = survival T/C of 150% or more; inactive = T/C below 125% in these data.

Tested on: BDF1 mice, P388 leukemia ip, median survival T/C
Assay: NCI In Vivo Anticancer Drug Screen. Data for tumor model P388 Leukemia (intraperitoneal) in B6D2F1 (BDF1) mice
Details: endpoint: median survival time, higher = longer survival
How it was run: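 Vehicle-dosed animals serve as the reference; survival of compound-dosed, tumour-implanted mice is divided by it.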

[1] = dose: 12.5 mg/kg/injection, schedule: Q01DX009 (ip), vehicle: Klucel (hydroxypropylcellulose) (HPC)
[2] = dose: 25.0 mg/kg/injection, schedule: Q01DX009 (ip), vehicle: Klucel (hydroxypropylcellulose) (HPC)
[3] = dose: 100.0 mg/kg/injection, schedule: Q01DX009 (ip), vehicle: saline with Tween-80
[4] = dose: 100.0 mg/kg/injection, schedule: Q04DX003 (ip), vehicle: saline with Tween-80
[5] = dose: 200.0 mg/kg/injection, schedule: Q01DX009 (ip), vehicle: saline with Tween-80
[6] = dose: 200.0 mg/kg/injection, schedule: Q04DX003 (ip), vehicle: saline with Tween-80
[7] = dose: 400.0 mg/kg/injection, schedule: Q01DX009 (ip), vehicle: saline with Tween-80
[8] = dose: 400.0 mg/kg/injection, schedule: Q04DX003 (ip), vehicle: saline with Tween-80
[9] = dose: 50.0 mg/kg/injection, schedule: Q01DX009 (ip), vehicle: saline with Tween-80
[10] = dose: 100.0 mg/kg/injection, schedule: Q01DX009 (ip), vehicle: Klucel (hydroxypropylcellulose) (HPC)
[11] = dose: 100.0 mg/kg/injection, schedule: Q04DX003 (ip), vehicle: Klucel (hydroxypropylcellulose) (HPC)
[12] = dose: 200.0 mg/kg/injection, schedule: Q01DX009 (ip), vehicle: Klucel (hydroxypropylcellulose) (HPC)
[13] = dose: 200.0 mg/kg/injection, schedule: Q04DX003 (ip), vehicle: Klucel (hydroxypropylcellulose) (HPC)
[14] = dose: 400.0 mg/kg/injection, schedule: Q04DX003 (ip), vehicle: Klucel (hydroxypropylcellulose) (HPC)
[15] = dose: 50.0 mg/kg/injection, schedule: Q01DX009 (ip), vehicle: Klucel (hydroxypropylcellulose) (HPC)

Measured: T/C

O=C1C(Cl)=C(Cl)C(=O)c2ccccc21
inactive: dose: 6.25 mg/kg/injection, schedule: Q01DX009 (ip), vehicle: Klucel (hydroxypropylcellulose) (HPC) 115 % of control | [1] 115 % of control | [2] 112 % of control

CO[C@H]1C[C@H](O[C@H]2CC[C@]3(C=O)[C@H]4CC[C@]5(C)[C@@H](C6=CC(=O)OC6)CC[C@]5(O)[C@@H]4CC[C@]3(O)C2)O[C@H](C)[C@H]1O[C@@H]1O[C@H](CO[C@@H]2O[C@H](CO)[C@@H](O)[C@H](O)[C@H]2O)[C@@H](O)[C@H](O)[C@H]1O
inactive: dose: 0.5 mg/kg/injection, schedule: Q01DX010 (ip), vehicle: saline 115 % of control | dose: 1.0 mg/kg/injection, schedule: Q01DX010 (ip), vehicle: saline 110 % of control

O=C(Oc1ccc([N+](=O)[O-])cc1)c1ccc2ccccc2n1
inactive: [3] 111 % of control | [4] 95 % of control | [5] 111 % of control | [6] 109 % of control | [7] 95 % of control | [8] 90 % of control

Nc1cc(Nc2cccc(Cl)c2)nc(N)n1
inactive: [9] 86 % of control

c1ccc(Oc2c3ccccc3nc3ccccc23)cc1
inactive: dose: 50.0 mg/kg/injection, schedule: Q01DX005 (ip), vehicle: saline with Tween-80 123 % of control

COc1ccc(C2CCCCC2O)cc1 (configuration not stated)
inactive: [10] 100 % of control | [11] 100 % of control | [12] 100 % of control | [13] 100 % of control | [14] 110 % of control

CN(C)c1cc(=O)c2c(ccc3ccccc32)o1
inactive: dose: 6.25 mg/kg/injection, schedule: Q01DX009 (ip), vehicle: saline with Tween-80 117 % of control | dose: 12.5 mg/kg/injection, schedule: Q01DX009 (ip), vehicle: saline with Tween-80 97 % of control | dose: 25.0 mg/kg/injection, schedule: Q01DX009 (ip), vehicle: saline with Tween-80 106 % of control | [9] 106 % of control

CCN(CC)Cc1cc(Nc2ccnc3cc(Cl)ccc23)cc(-c2ccc(Cl)cc2)c1O
inactive: [9] 110 % of control | [3] 102 % of control | [5] 102 % of control

CN1CC=C(N2CCOCC2)CC1
inactive: dose: 25.0 mg/kg/injection, schedule: Q04DX003 (ip), vehicle: saline 120 % of control | dose: 50.0 mg/kg/injection, schedule: Q04DX003 (ip), vehicle: saline 120 % of control | dose: 100.0 mg/kg/injection, schedule: Q04DX003 (ip), vehicle: saline 120 % of control

CC1(O)CCC2C3CCC4=CC(=O)CCC4C3CCC21C (configuration not stated)
inactive: [15] 113 % of control | dose: 65.0 mg/kg/injection, schedule: Q01DX009 (ip), vehicle: Klucel (hydroxypropylcellulose) (HPC) 94 % of control | dose: 66.0 mg/kg/injection, schedule: Q01DX009 (ip), vehicle: Klucel (hydroxypropylcellulose) (HPC) 95 % of control and 100 % of control | dose: 100.0 mg/kg/injection, schedule: Q04DX003 (ip), vehicle: other 100 % of control | [12] 100 % of control and 118 % of control | dose: 200.0 mg/kg/injection, schedule: Q04DX003 (ip), vehicle: other 115 % of control

CCCCS(=O)(=O)OCCCCOS(=O)(=O)CCCC
inactive: [3] 113 % of control | [4] 104 % of control | [5] 118 % of control | [6] 109 % of control | dose: 264.0 mg/kg/injection, schedule: Q04DX003 (ip), vehicle: saline with Tween-80 91 % of control | [7] 122 % of control | [8] 95 % of control | dose: 600.0 mg/kg/injection, schedule: Q04DX003 (ip), vehicle: saline with Tween-80 104 % of control

C[C@]12CCC(=O)C=C1CC[C@H]1[C@@H]3CC[C@](O)(C(=O)CO)[C@@]3(C)C[C@H](O)[C@@]12F
inactive: [1] 104 % of control | [2] 109 % of control | [15] 109 % of control | [10] 90 % of control | [11] 120 % of control | [13] 115 % of control | [14] 90 % of control

CC(=O)OC1CCC2(C)C3CCC4(C)C(O)CCC4C3CC(O)C2(O)C1 (configuration not stated)
inactive: dose: 50.0 mg/kg/injection, schedule: Q01DX009 (ip), vehicle: saline 103 % of control | dose: 100.0 mg/kg/injection, schedule: Q01DX009 (ip), vehicle: saline 88 % of control | dose: 200.0 mg/kg/injection, schedule: Q01DX009 (ip), vehicle: saline 107 % of control
